Assay results published in paper PMC8154566, “Scaffold-Hopping Strategy on a Series of Proteasome Inhibitors Led to a Preclinical Candidate for the Treatment of Visceral Leishmaniasis” (Journal of Medicinal Chemistry, 2021).
Values after ≈ are worked out from the molar mass of the structure shown. Like-named read-outs stand apart in the source and are kept apart here.

Assays:
L. donovani amastigotes = experiment: INMAC assay: intramacrophage L. donovani in differentiated THP-1 cells; type: cell-based, Leishmania donovani; conditions: for EC50 / IC50: Leishmania donovani; for EC50: THP-1, read-out: INMAC pEC50 (converted); for EC50 / INMAC pEC50: at least three replicates, SD ≤0.4; for IC50: THP-1, read-out: LdInMac pIC50 (converted)
Description: (§1) Intramacrophage L. donovani Assay. This assay was conducted as previously described, except for […]

THP-1 cells = experiment: THP-1 host cell read-out of the INMAC assay; type: cell-based; conditions: for EC50 / IC50: Homo sapiens, THP-1; for EC50: read-out: THP-1 pEC50 (converted); for IC50: read-out: THP1 pIC50 (converted)
Description: as §1

[1] = Kinetic aqueous solubility by CLND; type: physicochemical
Description: We had successfully used these criteria in the hit to lead stage to identify compounds for in vivo proof-of-concept studies in another program, which subsequently led to the identification of preclinical candidate DDD853651/GSK3186899 active against CRK12.[7] […] A pharmacokinetic (PK) study was thus performed, dosed at 10 mg/kg po and 3 mg/kg iv. […] With the limited knowledge of the PK/PD drivers for the treatment of VL, we considered this to be a suitable profile for the progression of 4 into a previously reported mouse efficacy model of VL,[6],[7],[17],[18] where it was dosed twice daily at 50 mg/kg ip in order to further maximize exposure and give the best chance of achieving proof-of-concept.
(§2) Intramacrophage L. donovani Assay. This assay was conducted as previously described, except for compound exposure time, which was 96 h instead of 72 h.4
(§3) Intrinsic Clearance. This assay was conducted as previously described.5 Aqueous Solubility. This assay was conducted as previously described.6
(§4) FaSSIF Solublity. This assay was conducted as previously described.5,7
(§5) In vivo Mouse Efficacy Studies. In vivo studies were carried out as previously described, with minor modifications.7 Briefly: Control drug used was Miltefosine (30 mg/kg orally, twice daily for 5 days), vehicle used was 10% (v/v) dimethyl sulfoxide (DMSO), 40% polyethylene glycol 400, and 50% deionized water (10 Ml/kg orally, twice daily for 5 days) and mice were treated with test compound intraperitoneally (50 mg/kg twice daily for 5 days). 5
(§6) All regulated procedures on living animals were carried out under the authority of a project license issued by the Home Office under the Animals (Scientific Procedures) Act 1986, as amended in 2012 (and in compliance with EU Directive EU/2010/63). Infected animals had access to food and water ad libitum and were housed under a 12 hour light/dark photoperiod. Animals used in these experiments were female NMRI and Balb/c mice (Harlan, UK).
(§7) Test compound DDD01008714 was dosed orally (P.O.) at 10 mg free base/kg (dose volume 10 mL/kg; dose vehicle: 10% (vol/vol) dimethyl sulfoxide (DMSO), 40% polyethylene glycol 400 (PEG400) and 50% deionized water) to female NMRI mice (n = 3) or intravenously (I.V.) at 3 mg free base/kg (dose volume 5 mL/kg; dose vehicle: 10% (vol/vol) dimethyl sulfoxide (DMSO) and 90% Saline) to female Balb/c mice (n = 3). Blood samples (10 μL) where taken from the tail vein of […]

[2] = FaSSIF (fasted state simulated intestinal fluid) solubility; type: physicochemical
Description: as §2, §3, §4, §5, §6, §7

[3] = Mouse liver microsomal intrinsic clearance; type: in vitro ADME; conditions: for Mouse CLi: mouse liver microsomes; for Cli (mouse, ml/min/g): supplementary csv
Description: as §2, §3, §4, §5, §6, §7

[4] = Table 6, kinetic, CLND, read-out: Aq. solubility
[5] = supplementary csv, read-out: Aqueous Solubility
[6] = Table 5, kinetic, CLND, read-out: Aq. solubility

Compound	EC50 (L. donovani amastigotes; Table 6) [µM]	EC50 (THP-1 cells; Table 6) [µM]	IC50 (THP-1 cells; supplementary csv) [µM]	solubility [1, 4] [µM]	solubility at 4 h ([2]; pH 6.5, Table 6) [µM]	solubility ([2]; supplementary csv) [µM]	Mouse CLi ([3]; Table 6) [mL/min/g]	Cli (mouse, ml/min/g) [3] [mL/min/g]	EC50 (L. donovani amastigotes; Table 5) [µM]	EC50 (THP-1 cells; Table 5) [µM]	solubility [1, 6] [µM]	solubility at 4 h ([2]; pH 6.5, Table 5) [µM]	Mouse CLi ([3]; Table 5) [mL/min/g]	also measured
O=C(Nc1ccc(F)c(-c2ccn3c(N4CCC5(CCOC5)C4)cnc3n2)c1)N1CCCC1 (stereo not drawn) [Compound 44, N-(3-(3-(2-Oxa-7-azaspiro[4.4]nonan-7-yl)imidazo[1,2-a]pyrimidin-7-yl)-4-fluorophenyl)pyrrolidine-1-carboxamide]	1.26	50.1	50.1	339 (≈ 153 µg/mL)	852 (≈ 384 µg/mL)	850 (≈ 383 µg/mL)	3.7	3.7	–	–	–	–	–	solubility [1, 5]: 340 µM (≈ 153 µg/mL)
O=C(Nc1ccc(F)c(-c2ccn3c(N4CCNCC4)cnc3n2)c1)N1CCCC1 [Compound 35, N-(4-Fluoro-3-(3-(piperazin-1-yl)imidazo[1,2-a]pyrimidin-7-yl)phenyl)pyrrolidine-1-carboxamide]	> 50.1	> 50.1	> 50.1	≥ 333	5 (≈ 2.05 µg/mL)	–	<0.5	<0.5	–	–	–	–	–	IC50 (L. donovani amastigotes): > 50.1 µM; solubility [1, 5]: ≥ 330 µM
O=C(Nc1ccc(F)c(-c2ccn3c(-c4ccccn4)cnc3n2)c1)N1CCCC1 [Compound 29, N-(4-Fluoro-3-(3-(pyridin-2-yl)imidazo[1,2-a]pyrimidin-7-yl)phenyl)pyrrolidine-1-carboxamide]	0.398	> 50.1	> 50.1	74 (≈ 29.8 µg/mL)	273 (≈ 110 µg/mL)	270 (≈ 109 µg/mL)	1.8	1.8	–	–	–	–	–	–
O=C(Nc1ccc(F)c(-c2cc3nc(N4CCOCC4)cnc3o2)c1)N1CCCC1 [Compound 21, N-[4-Fluoro-3-(2-morpholinofuro[2,3-b]pyrazin-6-yl)phenyl]pyrrolidine-1-carboxamide]	–	–	> 50.1	–	–	–	–	2.8	0.158	> 50.1	70 (≈ 28.8 µg/mL)	15 (≈ 6.17 µg/mL)	2.8	–
O=C(Nc1ccc(F)c(-c2cn3ncc(N4CCOCC4)cc3n2)c1)N1CCCC1 [Compound 15, N-[4-Fluoro-3-(7-morpholinoimidazo[1,2-b]pyridazin-2-yl)phenyl]pyrrolidine-1-carboxamide]	–	–	> 50.1	–	–	–	–	2	> 50.1	> 50.1	58 (≈ 23.8 µg/mL)	22 (≈ 9.03 µg/mL)	2.0	IC50 (L. donovani amastigotes): > 50.1 µM; INMAC pEC50 (L. donovani amastigotes; Table 5): inactive
(S)-N-(4-Fluoro-3-(3-(3-methylmorpholino)imidazo[1,2-a]pyrimidin-7-yl)phenyl)pyrrolidine-1-carboxamide [Compound 40]	–	–	–	345	–	–	1.8	1.8	–	–	–	–	–	INMAC pEC50 (L. donovani amastigotes; Table 6): 6.0; LdInMac pIC50 (L. donovani amastigotes; supplementary csv): 6; THP-1 pEC50 (THP-1 cells; Table 6): 4.3; THP1 pIC50 (THP-1 cells; supplementary csv): 4.3; Aqueous Solubility ([1]; supplementary csv): 350 µM; FaSSIF solubility ([2]; Table 6): 1,578 μM; FaSSIF solubility ([2]; supplementary csv): >1000 µM
O=C(Nc1ccc(F)c(-c2cc3cc(N4CCOCC4)cnn3n2)c1)N1CCCC1 [Compound 26, N-(4-Fluoro-3-(5-morpholinopyrazolo[1,5-b]pyridazin-2-yl)phenyl)pyrrolidine-1-carboxamide]	–	–	> 50.1	–	–	–	–	1.7	0.158	> 50.1	51 (≈ 20.9 µg/mL)	12 (≈ 4.93 µg/mL)	1.7	–
CN1CCOCC1c1cnc2nc(-c3cc(NC(=O)N4CCCC4)ccc3F)ccn12 (stereo not drawn) [Compound 33, N-(4-Fluoro-3-(3-(4-methylmorpholin-3-yl)imidazo[1,2-a]pyrimidin-7-yl)phenyl)pyrrolidine-1-carboxamide]	5.01	50.1	50.1	–	2340 (≈ 994 µg/mL)	> 1000	3.8	3.8	–	–	–	–	–	–
